Measurements from patent US20250368682A1, “NOVEL POLYPEPTIDE COMPOSITION FOR INTRACELLULAR TRANSFECTION” (AZOTHBIO INC., priority 2022, published 2025).

Legend:
Assay type in all cases: cell-based
Jurkat T cells [1] = experiment: Location of fluorescein-labeled plasmid DNA by fluorescence microscope (Hoechst 33342)
Text: Next, fluorescein-labeled plasmid DNA and L10-2×NLS were mixed and transfected into Jurkat T cells, followed by treatment with nucleus staining reagent Hoechst 33342 (ThermoFisher). The location of the plasmid DNA in Jurkat T cells was then confirmed using a fluorescence microscope (Leica) (FIG. 17), and the data were quantified and analyzed through graphical representation (FIG. 18).

Jurkat T cells [2] = experiment: FITC-labeled IgG antibody delivery efficiency by FACS; conditions: L10-2×NLS 4 μM or higher, 1 μg FITC-labeled IgG, 2 hours
Method: FITC-labeled IgG (Thermofisher) (1 μg) was mixed with L10-2×NLS at different concentrations (0.5, 1, 2, 4, or 6 μM). Each mixture was treated with Jurkat T cells for 2 hours, and then the antibody delivery efficiency to cells was confirmed using Novocyte FACS (Agilent) (FIG. 21), and the presence of the corresponding antibodies in cells was observed using a fluorescence microscope (Leica) (FIG. 22).

Jurkat T cells [3] = experiment: Cell morphology and viability (MTT assay) after transfection; conditions: 4 μM L10-2×NLS, 2 μg pEGFP-N3, morphology after 24 hours
Method: L10-2×NLS (4 μM) and pEGFP-N3 (2 μg) were mixed and transfected into Jurkat T cells, and changes in cell morphology after 24 hours were observed (FIG. 14). The cell viability after transfection was analyzed using MTT assay (FIG. 15).

Jurkat T cells [4] = experiment: pEGFP-N3 plasmid DNA delivery, GFP expression by immunoblotting; conditions: for GFP expression depending on copy number of NLS: 2, 3 or 4 copies of NLS after 10 leucines; for plasmid DNA delivery efficiency depending on leucine length: 10 or 11 leucines with 2×NLS, same experiment as Example 1-1
Method: Specific sequences thereof are shown in Table 2 below (Peptides 1 to 10). Each of the above peptides at a concentration of 4 μM was mixed with 2 μg of pEGFP-N3 plasmid for 30 minutes in a CO2 incubator at 37° C. After transfection of the plasmids into Jurkat T cells for 30 minutes, the expression of GFP was analyzed by immunoblotting after 24 hours (FIG. 1).
Peptides containing 10 or 11 leucine amino acids and 2×NLS linked thereto were prepared (Peptides 1 and 11), and based on these peptides, the effect of the number of leucine amino acids on the transmission level was further determined. Each of the above peptides was subjected to the same experiment as in Example 1-1, and then the expression of GFP was analyzed by immunoblotting (FIG. 2).
Peptides were prepared by varying the copy number of NLS, located following the 10 leucine amino acid sequences, to 2, 3, or 4, and specific sequences thereof are shown in Table 2 below (Peptides 1, 12, and 13). For each peptide, the change in GFP expression depending on the copy number of NLS was confirmed by immunoblotting (FIG. 3).
Accordingly, the copy number of NLS was set to 2, and a peptide (L10-2×NLS) in which the NLS amino acid sequence was located at the C-terminus, following leucine, and a peptide (2×NLS-L10) in which the NLS amino acid sequence was located at the N-terminus, preceding leucine, were prepared. Each of the above peptides (Peptide 1 and 14) was mixed with pEGFP-N3 and transfected into Jurkat T cells. Then, the expression changes of GFP were compared.
L10-2×NLS at different concentrations (2, 3, 4, 5, or 6 μM) was mixed with 2 μg of pEGFP-N3 and transfected into Jurkat T cells. The expression of GFP was then confirmed by immunoblotting (FIG. 5).
Next, pEGFP-N3 at different concentrations (0, 0.25, 0.5, 1, 2, 4, 5, or 6 μg) was mixed with 4 μM of L10-2×NLS and transfected into Jurkat T cells. The expression of GFP was then confirmed by immunoblotting (FIG. 6).
First, 4 μM L10-2×NLS and 2 μg pEGFP-N3 were mixed at 4, 16, 25, 37, or 42° C. for 30 minutes and transfected into Jurkat T cells for 30 minutes. […] (FIG. 7).
Thus, the temperature was set to 37° C., and 4 μM L10-2×NLS and 2 μg pEGFP-N3 were mixed for different times (10, 20, 30, 40, 50, or 60 minutes).
Finally, in an experiment as to the buffer used for the mixing, 4 μM of L10-2×NLS and 2 μg of pEGFP-N3 were mixed with Opti-MEM, DPBS, or Serum free RPMI-1640 (SF) buffer, respectively.
L10-2×NLS (4 μM) and pEGFP-N3 (2 μg) were mixed according to the above optimized conditions and transfected into Jurkat T cells for 0.5, 1, 2, 3, 4, or 5 hours to compare the changes in GFP expression over time (FIG. 10).

human primary T cells = experiment: CAR plasmid DNA delivery, CAR expression by immunoblotting with FLAG antibody; conditions: 4 μM L10-2×NLS, 2 μg FLAG-tagged CAR plasmid DNA, after 24 hours
Method: L10-2×NLS (4 μM) and FLAG-tagged CAR plasmid DNA (2 μg) were mixed and transfected into human primary T cells. After 24 hours, CAR expression in the human primary CD8+ T cells was confirmed by immunoblotting using FLAG antibody (FIG. 19).

Jurkat T cells [5] = experiment: Fluorescein-labeled plasmid DNA delivery efficiency by FACS; conditions: after 0.5 hours; 2 μg fluorescein-labeled plasmid DNA, 4 μM L10-2×NLS
Method: Fluorescein-labeled plasmid DNA (Takara) (2 μg) was mixed with L10-2×NLS (4 μM) and transfected into Jurkat T cells for 0.5, 1, 2, 3, 4, or 5 hours. Then, the delivery efficiency of the plasmid DNA into Jurkat T cells was analyzed using Novocyte FACS (Agilent) (FIG. 16).

Ac-LLLLLLLLLLPKKKRKVPKKKRKV-NH2 [L10-2×NLS]
plasmid DNA delivery to cells (Jurkat T cells [1]; 1 hour after transfection): delivered to the majority of cells | plasmid DNA found in the nucleus, efficiency (Jurkat T cells [1]; at 4 hours): approximately 40% | antibody delivery efficiency (Jurkat T cells [2]): approximately 90% | cell damage or cell death after transfection (Jurkat T cells [3]): did not cause any damage or cell death | transfection level compared to Lipofectamine (Jurkat T cells [4]; 4 μM peptide, 2 μg pEGFP-N3, immunoblot after 24 hours): significantly higher level compared to Lipofectamine® | GFP expression depending on hydrophobic amino acid type (Jurkat T cells [4]; 4 μM peptide, 2 μg pEGFP-N3, mixed 30 min at 37° C., transfection 30 min, immunoblot after 24 hours, among Peptides 1 to 10): highest GFP expression | GFP expression depending on copy number of NLS (Jurkat T cells [4]): highest expression of GFP | plasmid DNA delivery efficiency depending on leucine length (Jurkat T cells [4]): highest efficiency | transformation efficiency depending on N-terminal/C-terminal location of NLS (Jurkat T cells [4]; L10-2×NLS compared with 2×NLS-L10): high efficiency | GFP expression depending on mixing buffer (Jurkat T cells [4]; Opti-MEM, DPBS or Serum free RPMI-1640): transfection levels were maintained | GFP expression efficiency depending on pEGFP-N3 amount (Jurkat T cells [4]; at 2 μg pEGFP-N3 (tested 0-6 μg), 4 μM L10-2×NLS): highest | GFP expression efficiency depending on L10-2×NLS concentration (Jurkat T cells [4]; at 4 μM (tested 2, 3, 4, 5, 6 μM), 2 μg pEGFP-N3): highest expression efficiency of GFP | GFP expression depending on mixing temperature (Jurkat T cells [4]; mixing at 37° C. (tested 4, 16, 25, 37, 42° C.) for 30 minutes): highest expression of GFP | GFP expression depending on mixing time (Jurkat T cells [4]; mixing time 30 minutes (tested 10-60 minutes), 37° C.): highest expression level | GFP expression depending on transfection time (Jurkat T cells [4]; transfection for 0.5 or 1 hour (tested 0.5-5 hours)): sufficient to deliver plasmid DNA | CAR expression in human primary CD8+ T cells (human primary T cells): confirmed | plasmid DNA delivery efficiency (Jurkat T cells [5]): about 90%

N′-LLLLLLLLLLPKKKRKVPKKKRKVPKKKRKVPKKKRKV-C′ (Ac-LLLLLLLLLLPKKKRKVPKKKRKVPKKKRKVPKKKRKV-NH2) [Peptide 13]
GFP expression depending on copy number of NLS (Jurkat T cells [4]): maintained above a certain level

N′-LLLLLLLLLLLPKKKRKVPKKKRKV-C′ (Ac-LLLLLLLLLLLPKKKRKVPKKKRKV-NH2) [Peptide 11]
plasmid DNA delivery efficiency depending on leucine length (Jurkat T cells [4]): a certain level of high efficiency was maintained

N′-LLLLLLLLLLPKKKRKVPKKKRKVPKKKRKV-C′ (Ac-LLLLLLLLLLPKKKRKVPKKKRKVPKKKRKV-NH2) [Peptide 12]
GFP expression depending on copy number of NLS (Jurkat T cells [4]): maintained above a certain level
